Test results published in US20080153818A1, “METHODS FOR PREVENTING INFLAMMATION DURING SURGERY” (priority 2006, published 2008).

How the values were obtained:
[1] = tested on: preretinal neovascularization (NV) in the rat model of oxygen-induced retinopathy (OIR); test: Rat oxygen-induced retinopathy (OIR) model, single intravitreal injection; format: in vivo, Sprague-Dawley rats
Text: METHODS. Pregnant Sprague-Dawley rats were received at 14 days gestation and subsequently gave birth on Day 22±1 of gestation. Immediately following parturition, pups were pooled and randomized into separate litters (n=17 pups/litter), placed into separate shoebox cages inside oxygen delivery chamber, and subjected to an oxygen-exposure profile from Day 0-14 postpartum. Litters were then placed into room air from Day 14/0 through Day 14/6 (days 14-20 postpartum). Additionally on Day 14/0, each pup was randomly assigned as an oxygen-exposed control or into various treatment groups. For those randomized into an injection treatment group: one eye received a 5 μl intravitreal injection of 0.1%, 0.3%, 0.6%, or 1% RTKi and the contralateral eye received a 5 μl intravitreal injection of vehicle. At Day 14/6 (20 days postpartum), all animals in both studies were euthanized.
Immediately following euthanasia, retinas from all rat pups were harvested, fixed in 10% neutral buffered formalin for 24 hours, subjected to ADPase staining, and fixed onto slides as whole mounts. Digital images were acquired from each retinal flat mount that was adequately prepared. Computerized image analysis was used to obtain a NV clockhour score from each readable sample. Each clockhour out of 12 total per retina was assessed for the presence or absence of preretinal NV. […]

[2] = tested on: preretinal neovascularization (NV) in the rat OIR model; test: Rat OIR model, oral gavage; format: in vivo, Sprague-Dawley rats
Experimental: Immediately following euthanasia, retinas from all rat pups were harvested, fixed in 10% neutral buffered formalin for 24 hours, subjected to ADPase staining, and fixed onto slides as whole mounts. Digital images were acquired from each retinal flat mount that was adequately prepared. Computerized image analysis was used to obtain a NV clockhour score from each readable sample. Each clockhour out of 12 total per retina was assessed for the presence or absence of preretinal NV. Statistical comparisons using median scores for NV clockhours from each treatment group were utilized in nonparametric analyses. Each noninjected pup represented one NV score by taking the average value of both eyes and was used in comparisons against each dosage group. Because the pups were randomly assigned and no difference was observed between oxygen-exposed control pups from all litters, the NV scores were combined for all treatment groups. P≦0.05 was considered statistically significant.
METHODS. Pregnant Sprague-Dawley rats were received at 14 days gestation and subsequently gave birth on Day 22±1 of gestation. Immediately following parturition, pups were pooled and randomized into separate litters (n=17 pups/litter), placed into separate shoebox cages inside oxygen delivery chamber, and subjected to an oxygen-exposure profile from Day 0 to Day 14 postpartum. Litters were then placed into room air from Day 14/0 through Day 14/6 (days 14-20 postpartum). Additionally on Day 14/0, each pup was randomly assigned as oxygen-exposed controls, vehicle treated, or drug-treated at 1.5, 5, 10 mg/kg, p.o., BID. At Day 14/6 (20 days postpartum), all animals in both studies were euthanized and retina whole mounts were prepared as described in Example 1 above.

[3] = tested on: laser-induced choroidal neovascularization (CNV); test: Mouse laser-induced CNV, prevention, intravitreal injection; format: in vivo, C57BL/6J mice
Experimental: (§1) METHODS. CNV was generated by laser-induced rupture of Bruch's membrane. Briefly, 4 to 5 week old male C57BL/6J mice were anesthetized using intraperitoneal administration of ketamine hydrochloride (100 mg/kg) and xylazine (5 mg/kg) and the pupils of both eyes dilated with topical ocular instillation of 1% tropicamide and 2.5% Mydfin®. One drop of topical cellulose (Gonioscopic®) was used to lubricate the cornea. A hand-held cover slip was applied to the cornea and used as a contact lens to aid visualization of the fundus. Three to four retinal burns were placed in randomly assigned eye (right or left eye for each mouse) using the Alcon 532 nm EyeLite laser with a slit lamp delivery system. The laser burns were used to generate a rupture in Bruch's membrane, which was indicated ophthalmoscopically by the formation of a bubble under the retina. Only mice with laser burns that produced three bubbles per eye were included in the study. Burns were typically placed at the 3, 6, 9 or 12 o'clock positions in the posterior pole of the retina, avoiding the branch retinal arteries and veins.
(§2) Each mouse was randomly assigned into one of the following treatment groups: noninjected controls, sham-injected controls, vehicle-injected mice, or one of three RTKi-injected groups. […]

[4] = tested on: existing laser-induced choroidal neovascularization (CNV); test: Mouse laser-induced CNV, regression of existing CNV, intravitreal injection at day 7; format: in vivo; details: single intravitreal injection
Experimental: as §1, §2
METHODS. […] Choroidal flat mounts were analyzed as described above in Example 3.

[5] = tested on: laser-induced choroidal neovascularization (CNV); test: Mouse laser-induced CNV, prevention paradigm, oral gavage; format: in vivo; details: for inhibition of CNV (in words): prevention paradigm, 14 days
[6] = tested on: existing laser-induced choroidal neovascularization (CNV); test: Mouse laser-induced CNV, regression paradigm, oral gavage from day 7; format: in vivo; details: 3 mg/kg/day oral from day 7
[7] = tested on: diabetes-induced retinal vascular permeability (STZ rat model); test: STZ diabetic rat retinal vascular permeability, oral gavage; format: in vivo
Experimental: METHODS. Diabetes was induced in male Long-Evans rats with 65 mg/kg streptozotocin (STZ) after an overnight fast. Upon confirmation of diabetes (blood glucose >250 mg/dl), treatment was initiated by oral gavage. Non-diabetic (NDM) and diabetic (DM) rats received oral gavage of either vehicle or RTK inhibitor at 1.5 or 5 mg/kg/d BID. After 2 weeks, jugular vein catheters were implanted 1 day prior to experimentation for the infusion of indicator dye. Retinal vascular permeability, RVP, was measured using Evan's blue albumin permeation (45 mg/kg) after a 2 hour circulation period.

[8] = NDM and DM groups, oral gavage, 2 weeks

Cc1ccc(F)c(NC(=O)Nc2ccc(-c3cccc4[nH]nc(N)c34)cc2)c1 [Compound 86, N-[4-[3-amino-1H-indazol-4-yl]phenyl]-N′-(2-fluoro-5-methylphenyl)urea]
efficacy against preretinal NV (in words) ([1]; 0.1% treated eyes, intravitreal): Efficacy was not observed | effect on preretinal neovascularization (in words, FIG. 1) ([1]; single intravitreal injection): inhibits | decrease in NV (in words) ([2]; 3 mg/kg/day p.o.): did not have a significant decrease | inhibition of preretinal NV (in words) ([2]; 20 mg/kg/day p.o.): complete inhibition | effect on preretinal neovascularization (in words, FIG. 2) ([2]; oral gavage): prevents | difference in CNV versus vehicle injected eyes (in words) ([3]; 0.3% RTKi, intravitreal): marginal statistical difference | effect on laser-induced CNV (in words, FIG. 3) ([3]; single intravitreal injection): inhibits | effect on existing laser-induced CNV (in words, FIG. 4) [4]: induces regression | effect on laser-induced CNV (in words, FIG. 6) ([5]; oral gavage): inhibits | inhibition of CNV (in words) ([5]; 3 mg/kg/day oral gavage): no significant inhibition | inhibition of CNV (in words) ([5]; 20 mg/kg/d oral gavage): complete inhibition | regression of existing CNV (in words) [6]: did not show a significant regression | RVP (in words) ([7]; NDM (non-diabetic) rats, 5 mg/kg/d oral gavage): unchanged | systemic or ERG side effects [7, 8]: no observed systemic or ERG side effects | tolerability of oral treatment [7, 8]: well tolerated
